Where two headings read alike, the source gives them in different places. Where a SMILES comes first, the peptide text is derived from it. [ ]: non-standard residue; d: D form. The star is where a group is joined. DOTA = O=C(O)CN1CCN(CC(=O)O)CCN(CC(=O)*)CCN(CC(=O)O)CC1; βAla = NCCC(=O)O
Assays:
[1] = In vivo tumor targeting and biodistribution in nude mice bearing MDA-MB-231 xenografts; set-up: species or system mouse; settings: mouse, total radioactivity
Description: (§1) (with 43% wash away from the tumors over 2 h). The amount of radioactivity found for the ^68Ga-labeled AngII peptide analog in the tumors was always more than the radioactivity detected in the blood and muscle. A general pattern of better tumor-to-blood and tumor-to-muscle uptake ratios was noticed over time for ^68Ga-labeled AngII peptide.
(§2) In vivo, tumor uptake was conducted as reported previously. In summary, ~5 million MDA-MB-231 cells in 200 µL sterile PBS were implanted subcutaneously into each nude mouse. Once tumor growth became sufficient (~50–500 mg), tumor uptake and organ biodistribution were carried out after injecting the radiolabeled AngII peptide. The percent of the injected dose per gram in the tumors was determined by using a custom-designed Quattro Pro X9 spreadsheet (Corel Corporation, Austin, TX, USA).

[2] = test system: MDA-MB-231 tumor xenografts; experiment: as above; set-up: species or system mouse
Description: as §1, §2

In the case of `CC[C@H](C)[C@H](NC(=O)[C@H](Cc1ccc(O)cc1)NC(=O)[C@@H](NC(=O)[C@H](CCCNC(=N)N)NC(=O)[C@H](CC(=O)O)NC(=O)CCNC(=O)[C@H](CCCCN)NC(=O)CN1CCN(CC(=O)O)CCN(CC(=O)O)CCN(CC(=O)O)CC1)C(C)C)C(=O)N[C@@H](Cc1c[nH]cn1)C(=O)N1CCC[C@H]1C(=O)N[C@@H](Cc1ccccc1)C(=O)N[C@@H](Cc1c[nH]c2ccccc12)C(=O)N[C@@H](CCCCN)C(=O)N[C@@H](Cc1ccc(O)cc1)C(N)=O` [^68Ga-DOTA-AngII peptide, metal not drawn] ({DOTA}-K[βAla]DRVYIHPFWKY-NH2), the tissue uptake at 0.75 h ([1]; blood, nude mice with MDA-MB-231 xenografts, 45 min p.i., mean ± SD, n = 4-6, read-out: Blood uptake) is reported as 0.55 ± 0.12 %ID/g, the tissue uptake at 2 h ([1]; blood, nude mice with MDA-MB-231 xenografts, 2 h p.i., mean ± SD, n = 4-6, read-out: Blood uptake) is reported as 0.22 ± 0.1 %ID/g and the tissue uptake at 0.75 h ([1]; heart, nude mice with MDA-MB-231 xenografts, 45 min p.i., mean ± SD, n = 4-6, read-out: Heart uptake) is reported as 0.88 ± 0.3 %ID/g. The tissue uptake at 2 h ([1]; heart, nude mice with MDA-MB-231 xenografts, 2 h p.i., mean ± SD, n = 4-6, read-out: Heart uptake) was 0.65 ± 0.19 %ID/g, the tissue uptake at 0.75 h ([1]; intestines without contents, nude mice with MDA-MB-231 xenografts, 45 min p.i., mean ± SD, n = 4-6, read-out: Intestines uptake (portion without contents)) was 1.2 ± 0.35 %ID/g and the tissue uptake at 2 h ([1]; intestines without contents, nude mice with MDA-MB-231 xenografts, 2 h p.i., mean ± SD, n = 4-6, read-out: Intestines uptake (portion without contents)) was 1.05 ± 0.31 %ID/g. For the same molecule, the tissue uptake at 0.75 h ([1]; kidneys, nude mice with MDA-MB-231 xenografts, 45 min p.i., mean ± SD, n = 4-6, read-out: Kidneys uptake) was 4.89 ± 1.97 %ID/g, the tissue uptake at 2 h ([1]; kidneys, nude mice with MDA-MB-231 xenografts, 2 h p.i., mean ± SD, n = 4-6, read-out: Kidneys uptake) was 3.97 ± 1.2 %ID/g and the tissue uptake at 0.75 h ([1]; liver, nude mice with MDA-MB-231 xenografts, 45 min p.i., mean ± SD, n = 4-6, read-out: Liver uptake) was 0.77 ± 0.22 %ID/g. It also gave a tissue uptake at 2 h ([1]; liver, nude mice with MDA-MB-231 xenografts, 2 h p.i., mean ± SD, n = 4-6, read-out: Liver uptake) of 0.65 ± 0.28 %ID/g, a tissue uptake at 0.75 h ([1]; lungs, nude mice with MDA-MB-231 xenografts, 45 min p.i., mean ± SD, n = 4-6, read-out: Lungs uptake) of 0.57 ± 0.16 %ID/g and a tissue uptake at 2 h ([1]; lungs, nude mice with MDA-MB-231 xenografts, 2 h p.i., mean ± SD, n = 4-6, read-out: Lungs uptake) of 0.39 ± 0.15 %ID/g. For the same molecule, the tissue uptake at 0.75 h ([1]; muscle/bone, nude mice with MDA-MB-231 xenografts, 45 min p.i., mean ± SD, n = 4-6, read-out: Muscle/bone uptake) was 0.4 ± 0.17 %ID/g, the tissue uptake at 2 h ([1]; muscle/bone, nude mice with MDA-MB-231 xenografts, 2 h p.i., mean ± SD, n = 4-6, read-out: Muscle/bone uptake) was 0.19 ± 0.1 %ID/g and the tissue uptake at 0.75 h ([1]; pancreas, nude mice with MDA-MB-231 xenografts, 45 min p.i., mean ± SD, n = 4-6, read-out: Pancreas uptake) was 0.47 ± 0.11 %ID/g. For the same molecule, the tissue uptake at 2 h ([1]; pancreas, nude mice with MDA-MB-231 xenografts, 2 h p.i., mean ± SD, n = 4-6, read-out: Pancreas uptake) was 0.29 ± 0.05 %ID/g, the tissue uptake at 0.75 h ([1]; spleen, nude mice with MDA-MB-231 xenografts, 45 min p.i., mean ± SD, n = 4-6, read-out: Spleen uptake) was 0.39 ± 0.08 %ID/g and the tissue uptake at 2 h ([1]; spleen, nude mice with MDA-MB-231 xenografts, 2 h p.i., mean ± SD, n = 4-6, read-out: Spleen uptake) was 0.24 ± 0.05 %ID/g. For the same molecule, the tissue uptake at 0.75 h ([1]; stomach, nude mice with MDA-MB-231 xenografts, 45 min p.i., mean ± SD, n = 4-6, read-out: Stomach uptake) was 0.34 ± 0.1 %ID/g, the tissue uptake at 2 h ([1]; stomach, nude mice with MDA-MB-231 xenografts, 2 h p.i., mean ± SD, n = 4-6, read-out: Stomach uptake) was 0.3 ± 0.08 %ID/g and the tissue uptake at 0.75 h ([1]; tumor (MDA-MB-231 xenograft), MDA-MB-231 tumor in nude mice, 45 min p.i., mean ± SD, n = 4-6, read-out: Tumor uptake) was 2.18 ± 0.66 %ID/g. The tissue uptake at 2 h ([1]; tumor (MDA-MB-231 xenograft), MDA-MB-231 tumor in nude mice, 2 h p.i., unblocked, mean ± SD, n = 4-6, read-out: Tumor uptake) was 1.25 ± 0.37 %ID/g, the tissue to tissue ratio at 2 h ([1]; tumor / muscle, nude mice with MDA-MB-231 xenografts, 2 h p.i., read-out: Tumor/muscle uptake ratio) was 6.58 and the tissue to tissue ratio at 0.75 h ([1]; tumor/blood, nude mice with MDA-MB-231 xenografts, 45 min p.i., read-out: Tumor/blood uptake ratio) was 3.96. The tissue to tissue ratio at 2 h ([1]; tumor/blood, nude mice with MDA-MB-231 xenografts, 2 h p.i., read-out: Tumor/blood uptake ratio) was 5.68, the tissue to tissue ratio at 0.75 h ([1]; tumor/muscle, nude mice with MDA-MB-231 xenografts, 45 min p.i., read-out: Tumor/muscle uptake ratio) was 5.45 and the dose excreted at 0.75 h ([1]; urine with bladder contents, nude mice with MDA-MB-231 xenografts, 45 min p.i., mean ± SD, n = 4-6, read-out: Urine + Bladder (urinary excretion)) was 49.9 ± 10.9%. The dose excreted at 2 h ([1]; urine with bladder contents, nude mice with MDA-MB-231 xenografts, 2 h p.i., mean ± SD, n = 4-6, read-out: Urine + Bladder (urinary excretion)) was 55 ± 8.79%, the “Wash away from the tumors” value ([2]; MDA-MB-231 tumors in nude mice, over 2 h (45 min vs 2 h p.i.)) was 43% and the “Clearance through the hepatobiliary system (liver + intestines)” value ([2]; tumor-bearing nude mice) was “below 7 % ID”.
